Columns and labels:
[1] = Solubility test of 10 µM solutions in 1:1000 DMSO:PIPES buffer; assay type: physicochemical
Description: 10 mM solutions of PTX derivatives in DMSO were prepared. All substances were soluble in DMSO at this concentration. 10 µM solutions of were obtained by 1:1000 dilution of the stock solution into 80 mM PIPES buffer pH 6.8, containing 2 mM MgCl2 and 1 mM EGTA. Table A: solubility test of 10 µM solutions of PTX derivatives in 1:1000 DMSO:PIPES buffer

[2] = Photocleavage study: irradiation at 360 nm, composition by HPLC; assay type: physicochemical; conditions: 1 mM, 5% water in acetonitril, share of the labelled species
Description: The photolysis of the compounds 2'-Nvoc-PTX and 2',7-bisNvoc-PTX was followed by UV and HPLC analysis of the correspondent solutions after exposure to light at λmax = 360 nm (2.7 mW/cm^2).
3 ml of a 1 mM solution of caged PTX in acetonitrile containing 5% water was placed into a quartz cuvette and was exposed at 360 nm for different irradiation times. Aliquots of 50 µl were taken after various irradiation times, and each aliquot was splitted in two parts. 20 µl were diluted to 400 µl to obtain 50 µM solution for UV-Vis characterisation. The 30 µl left from each aliquot were injected into the HPLC (20 µl loop, analytical column) in order to estimate the composition of the irradiated mixture.
Photocleavage of compound 2',7-bisNvoc-PTX was expected to yield the mono-substituted species 2'-Nvoc-PTX and 7-Nvoc-PTX as intermediates that can be further photolyzed to afford free PTX. In fact, HPLC analysis (Fig. 1) confirmed the presence of 2'-Nvoc-PTX (retention time, r.t.= 16.7 min) and 7-Nvoc-PTX (r.t. = 18.2 min) together with the starting compound 2',7-bisNvoc-PTX (r.t. = 21.3 min) and the fully deprotected PTX (r.t. = 11.1 min). The ratio of these compounds within the composition of the irradiated mixture changes with the exposure dose. Fig. 2 and Table B below show the compositional evolution of the mixture with increasing irradiation time as obtained by HPLC analysis. […] However, the influence of other structural factors in the photolytic mechanism cannot be ruled out. Compound 7-Nvoc-PTX could also be isolated from the irradiated mixture in milligram scale. Table B. Molar composition of a solution of 2',7-bisNvoc-PTX (1 mM, 5% water in acetonitril) after different irradiation times, as determined by analysis of HPLC graphs (Fig. 2)

HeLa cells [3] = assay: Live cell imaging of the microtubule network (Tubulin Tracker / DRAQ5, CLSM); assay type: cell-based, Human; conditions: for microtubule staining by Tubulin Tracker (fluorescence CLSM) / cell morphology / mitosis in microscopy images: 10 µM; for microtubule staining by Tubulin Tracker (fluorescence CLSM) / inhibition of PTX bioactivity / binding of PTX to β-tubulin by the cage / cell morphology / mitosis in microscopy images / concentrations at which the derivative bound to tubulin / concentration triggering the multiple nuclei pattern: 24 h; for inhibition of PTX bioactivity / binding of PTX to β-tubulin by the cage: concentrations up to 10 µM
Description: (§1) Human cervix carcinoma cells, HeLa cells (#ACC57, DMSZ, Germany), were cultured in DMEM medium (Invitrogen) supplemented with 10% fetal calf serum (FCS, Gibco) in a humidified incubator at 37°C/5%CO2.
In order to visualize the influence of the PTX derivatives in the microtubule network of the cell, a live cell microscopy analysis of HeLa cells after incubation with 10 µM PTX derivatives for 24 hours was performed.
Specifically, microtubules and nuclei of HeLa cells were fluorescently stained with Tubulin Tracker (Invitrogen) and DRAQ5 (biostatus, United Kingdom) respectively, and imaged by a Leica TCS SP5 confocal laser scanning microscopy (CLSM). 30x10^4 HeLa cells were seeded in 8-well chamber slides (Lab-Tek, nunc, Germany) and the culture medium was replaced after ~16 h by compound supplemented medium (250 µL, DMEM, 10% FCS, 1% DMSO) or medium without compound (DMEM, 10% FCS, 1% DMSO) as a specific control. After 24h, cells were carefully washed with Hank's Buffered Saline Solution (HBSS, with Ca^2+ and Mg^2+, Invitrogen) and the buffer was replaced by a staining solution containing 250 nM Tubulin Tracker (Invitrogen) and 5 µM DRAQ5. The cells were stained for 30 min at 37°C/5% CO2 in a humidified incubator. The staining solution was replaced by HBSS and the cells were directly imaged with a 100x plan apochromat (1.4 NA) oil immersion objective on the CLSM system equipped with a CO2 incubator and a temperature control. Tubulin Tracker was excited with an argon laser (488 nm) and the emission was detected by 500-580 nm. DRAQ5 was excited with a HeNe laser (633 nm) and the emission was detected by 650-730 nm. The images have a voxel height and width of 90 nm. Bright field images grabbed with an Olympus IX-70 inverted microscope with a 20x phase contrast objective. Image processing performed with Leica LAS AF lite and ImageJ (Fiji).

HeLa cells [4] = assay type: cell-based, Human; conditions: for cytotoxicity: concentrations at least up to 10 µM
Description: as §1
In order to evaluate the bioactivity of the caged PCT derivatives, their cytotoxicity was tested in vitro using HeLa cells. Cells were incubated with PTX and caged PTX derivatives at concentrations between 0.01 and 10 µM.
The effect of PTX and derivatives on cell vitality was measured in a combined assay determining cytotoxicity and cell number by propidium iodide (PI) staining. HeLa cells (2x10^4 cells/well) were diluted in cell culture medium (DMEM, 10 % FCS) and seeded in 96 well-plates (black plate, clear bottom, corning, Amsterdam, Netherlands). The culture medium was replaced after ~16h by compound supplemented medium (200 µL, DMEM, 10 % FCS, 1 % DMSO) or medium without compound (DMEM, 10 % FCS, 1 % DMSO) as a specific control. After 48 h, dead cells with permeable cell membranes were stained with PI ([…], 15 min at 37°C, 5% CO2) and the PI fluorescence intensity was measured with a fluorescence plate reader (excitation wavelength 530 nm, emission wavelength 620 nm, Tecan Infinite M1000, Austria). Subsequently, the cells were lysed with 2% Triton X-100 diluted in DMEM (0.3% Triton X-100 per well, 15 min at 37°C, 5% CO2 and the PI fluorescence was measured again. The vitality of the cells was calculated by the ratio of dead cells (DC) before lyses and the total cell number (TCN) after lyses (1-DC/TCN).

[5] = 10 µM in 1:1000 DMSO:PIPES buffer (80 mM, pH 6.8), time 1 hr
[6] = 10 µM in 1:1000 DMSO:PIPES buffer (80 mM, pH 6.8), time 8 hrs
[7] = 10 µM in 1:1000 DMSO:PIPES buffer (80 mM, pH 6.8), time 24 hrs
[8] = 10 µM in 1:1000 DMSO:PIPES buffer (80 mM, pH 6.8), time 30 hrs
[9] = 10 µM in 1:1000 DMSO:PIPES buffer (80 mM, pH 6.8, 2 mM MgCl2, 1 mM EGTA), time 5 min
[10] = 360 nm (2.7 mW/cm^2), irradiation time 0 min
[11] = 360 nm, irradiation time 60 min
[12] = 360 nm, irradiation time 270 min
[13] = 360 nm, irradiation time 450 min
[14] = 360 nm, irradiation time 570 min
[15] = 360 nm, irradiation time 735 min
[16] = 360 nm, irradiation time 820 min
[17] = 360 nm, irradiation time 1585 min

Row | Structure (SMILES) | solubility test (appearance of solution) [1, 5] | solubility test (appearance of solution) [1, 6] | solubility test (appearance of solution) [1, 7] | solubility test (appearance of solution) [1, 8] | solubility test (appearance of solution) [1, 9] | Molar composition of a solution of 2',7-bisNvoc-PTX after irradiation [2, 10] | Molar composition of a solution of 2',7-bisNvoc-PTX after irradiation [2, 11] | Molar composition of a solution of 2',7-bisNvoc-PTX after irradiation [2, 12] | Molar composition of a solution of 2',7-bisNvoc-PTX after irradiation [2, 13] | Molar composition of a solution of 2',7-bisNvoc-PTX after irradiation [2, 14] | Molar composition of a solution of 2',7-bisNvoc-PTX after irradiation [2, 15] | Molar composition of a solution of 2',7-bisNvoc-PTX after irradiation [2, 16] | Molar composition of a solution of 2',7-bisNvoc-PTX after irradiation [2, 17] | microtubule staining by Tubulin Tracker (fluorescence CLSM) (HeLa cells [3]) | inhibition of PTX bioactivity / binding of PTX to β-tubulin by the cage (HeLa cells [3]) | cytotoxicity (HeLa cells [4]; 48 h) | cell morphology / mitosis in microscopy images (HeLa cells [3]) | concentrations at which the derivative bound to tubulin (HeLa cells [3]) | other results
1 | COc1cc(COC(=O)O[C@H]2C[C@H]3OC[C@@]3(OC(C)=O)[C@H]3[C@H](OC(=O)c4ccccc4)[C@]4(O)C[C@H](OC(=O)[C@H](OC(=O)OCc5cc(OC)c(OC)cc5[N+](=O)[O-])[C@@H](NC(=O)c5ccccc5)c5ccccc5)C(C)=C([C@@H](OC(C)=O)C(=O)[C@]23C)C4(C)C)c([N+](=O)[O-])cc1OC [2',7-bisNvoc-PTX] | clear solution | clear solution | clear solution | turbid solution | clear solution | 100% | 90.5% | 72.3% | 51.1% | 42.2% | 27.5% | 24.3% | 6.1% | evenly stained by Tubulin Tracker and showed similar patterns than the negative control | effectively inhibited binding of PTX to β-tubulin | did not show any cytotoxicity |  |  | vitality of cells after incubation with irradiated solutions (HeLa cells [4]; irradiated solutions of 2',7-bisNvoc-PTX, longer irradiation times): 0.5; cytotoxic effects of irradiated solutions (HeLa cells [4]; irradiated solutions of 2',7-bisNvoc-PTX, shortest irradiation time): Cytotoxic effects were visible already at the shortest irradiation time
2 | COc1cc(COC(=O)O[C@@H](C(=O)O[C@H]2C[C@@]3(O)[C@@H](OC(=O)c4ccccc4)[C@@H]4[C@]5(OC(C)=O)CO[C@@H]5C[C@H](O)[C@@]4(C)C(=O)[C@H](OC(C)=O)C(=C2C)C3(C)C)[C@@H](NC(=O)c2ccccc2)c2ccccc2)c([N+](=O)[O-])cc1OC [2'-Nvoc-PTX] | clear solution | clear solution | turbid solution | Suspension | clear solution | 0% | 6.3% | 17.4% | 27.6% | 32.3% | 35.6% | 38.1% | 25.6% |  | not able to completely inhibit PTX bioactivity |  | showed similar results to free PTX | > 10 nM | concentration triggering the multiple nuclei pattern (HeLa cells [3]; patterns similar between the compounds (Fig. 6)): 0.05 µM; reduction in vitality (HeLa cells [4]; 48 h, at 0.5 µM): ~ 25%; concentration range over which the derivative can be regarded as caged PTX (HeLa cells [4]; vitality results): < 0.1 µM
3 | COc1cc(COC(=O)O[C@H]2C[C@H]3OC[C@@]3(OC(C)=O)[C@H]3[C@H](OC(=O)c4ccccc4)[C@]4(O)C[C@H](OC(=O)[C@H](O)[C@@H](NC(=O)c5ccccc5)c5ccccc5)C(C)=C([C@@H](OC(C)=O)C(=O)[C@]23C)C4(C)C)c([N+](=O)[O-])cc1OC [7-Nvoc-PTX] |  |  |  |  |  | 0% | 3.2% | 8.6% | 15.3% | 14.9% | 18.4% | 16.4% | 7.8% | microtubules were less stained, tripolar spindles appeared and the cells developed multiple nuclei with different sizes | not able to completely inhibit PTX bioactivity | did not show any cytotoxicity | formed an adherent monolayer similar to the negative control | > 1000 nM | concentration triggering the multiple nuclei pattern (HeLa cells [3]; pattern similar to 2 nM PTX (Fig. 6)): 10 µM; prevention of mitotic blocking relative to 2'-Nvoc-PTX (HeLa cells [3]; at the concentration tested (10 µM)): ~ 200 fold

Source: patent publication EP2565188A1, “Novel photoactivatable paclitaxel derivatives and uses thereof, in particular in cellbiology and cancer treatment” (Max-Planck-Gesellschaft zur Förderung der Wissenschaften …, priority 2011, dated 2013)
